Measured values from PMC3677616, “Interaction of Human Dopa Decarboxylase with L-Dopa: Spectroscopic and Kinetic Studies as a Function of pH” (BioMed Research International, 2013).
One block for each molecule: values may come before it.

Legend:
[1] = target: T1, hDDC (human Dopa decarboxylase) (Homo sapiens, UniProt P20711); assay: stopped-flow absorbance at […] nm, hyperbolic fit of kobs (two-step binding); settings: read-out: K1
T1 construct: gene DDC; homodimer
T1 sequence (P20711 1-480): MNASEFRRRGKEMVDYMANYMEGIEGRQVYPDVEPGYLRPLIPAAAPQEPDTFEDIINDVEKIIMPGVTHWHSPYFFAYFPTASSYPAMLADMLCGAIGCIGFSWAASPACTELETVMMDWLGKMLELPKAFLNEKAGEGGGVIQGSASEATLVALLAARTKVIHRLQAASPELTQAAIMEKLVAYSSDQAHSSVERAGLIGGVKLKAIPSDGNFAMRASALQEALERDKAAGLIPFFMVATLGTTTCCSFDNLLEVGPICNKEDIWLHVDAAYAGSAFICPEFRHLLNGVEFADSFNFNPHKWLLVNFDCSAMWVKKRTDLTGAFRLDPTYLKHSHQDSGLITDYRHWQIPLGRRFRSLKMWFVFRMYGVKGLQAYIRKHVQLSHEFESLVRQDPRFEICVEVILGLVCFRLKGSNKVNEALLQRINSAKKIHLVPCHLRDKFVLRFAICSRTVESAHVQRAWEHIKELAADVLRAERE

[2] = target: T1, hDDC (human Dopa decarboxylase); assay: quenching of intrinsic fluorescence of apoenzyme, tight-binding quadratic fit; settings: read-out: KD(PLP)
[3] = substrate: N[C@@H](Cc1ccc(O)c(O)c1)C(=O)O; assay: steady-state decarboxylation, spectrophotometric assay, Michaelis-Menten fit; assay type: biochemical, Homo sapiens; settings: pH 6.0, 50 mM Bis-Tris-propane, 10 μM PLP, 25°C

Kd [1]: 320 ± 20 µM
Molecule: N[C@@H](Cc1ccc(O)c(O)c1)C(=O)O [L-Dopa]

Kd [2]: 0.2 µM
Molecule: Cc1ncc(COP(=O)(O)O)c(C=O)c1O [PLP]

B1: hDDC (human Dopa decarboxylase) (Homo sapiens) (protein)
chain: T1 sequence (P20711 1-480)
notes: homodimer
Km [3]: 230 ± 30 µM | kcat [3]: 3 s⁻¹
